Like-named read-outs stand apart in the source and are kept apart here.
Key:
Type in all cases: binding
[1] = system: SARS-CoV-2 gRNA and sgRNAs; conditions: for target (unweighted spectral count in RNP capture): Probe II capture, LC-MS/MS LFQ; for background (unweighted spectral count in control): no-probe control pull-down, used as background for Probe II; for target (unweighted spectral count of the protein in the RNP capture experiment): LC-MS/MS label-free quantification, probe pool not given; for back-ground (unweighted spectral count of the protein in the control experiment): protein background of the control (e.g. no-probe) experiment
HCoV-OC43 gRNA and sgRNA = conditions: for target (unweighted spectral count): OC43 Probe II, infected cells; for target (spectral count) / background (spectral count): type s_36_m, Probe II; for target (spectral count): HCoV-OC43-infected HCT-8 cells; for background (spectral count): uninfected-probe control
gRNA of HCoV-OC43 = conditions: for target (spectral count) / background (spectral count): type g_36_m, 36 hpi, Probe I; for target (spectral count): HCoV-OC43-infected HCT-8 cells; for background (spectral count): uninfected-probe control
SARS-CoV-2 gRNA = conditions: for target (unweighted spectral count in RNP capture): Probe I capture, LC-MS/MS LFQ; for background (unweighted spectral count in control): no-probe control pull-down, used as background for Probe I; for target (unweighted spectral count of the protein in the RNP capture): LC-MS/MS, Probe I sample (first 199 lines of Table 2)
[2] = 12 hpi (type n_12_v), tested against no-probe control
[3] = type n_48_v, 48 hpi, OC43 Probe II capture on infected cells
[4] = type n_48_v, 48 hpi, no-probe control on infected cells
[5] = type n_48_v: 48 hours post-infection, infected cells, OC43 Probe I, unweighted spectral count
[6] = type n_48_v: 48 hours post-infection, no-probe control on infected cells
[7] = 36 hpi, type n_36_v, tested against no-probe control, FDR<10%
[8] = 24 hpi (type n_24_v), tested against no-probe control
[9] = 24 hpi, type n_24_v, tested against no-probe control, FDR<10%

| Substance | target (unweighted spectral count in RNP capture) [1] | background (unweighted spectral count in control) [1] | target (unweighted spectral count, OC43 Probe II) (HCoV-OC43 gRNA and sgRNA; [3]) | background (unweighted spectral count, no-probe control) (HCoV-OC43 gRNA and sgRNA; [4]) | target (unweighted spectral count, OC43 Probe II capture) (HCoV-OC43 gRNA and sgRNA; [7]) | target (unweighted spectral count of the protein in the RNP capture) (SARS-CoV-2 gRNA) | also measured |
| --- | --- | --- | --- | --- | --- | --- | --- |
| TAF15: host protein, UniProt Q92804 | 8 | 1 | 8 | 1 | – | – | target (unweighted spectral count) (HCoV-OC43 gRNA and sgRNA; [2]): 5; target (spectral count) (HCoV-OC43 gRNA and sgRNA; 36 hpi): 8; background (spectral count) (HCoV-OC43 gRNA and sgRNA; 36 hpi): 1; target (spectral count, OC43 Probe I RNP capture) (gRNA of HCoV-OC43; [5]): 11; background (spectral count, no-probe control) (gRNA of HCoV-OC43; [6]): 1; target (unweighted spectral count in RNP capture) (SARS-CoV-2 gRNA): 5; background (unweighted spectral count in control) (SARS-CoV-2 gRNA): 1 |
| FXR1 | 47 | 1 | 9 | 1 | 5 | 9 | – |
| HNRNPK: host protein, UniProt P61978 | 52 | 1 | 63 | 8 | 66 | – | target (unweighted spectral count) (HCoV-OC43 gRNA and sgRNA; [8]): 28; target (spectral count) (HCoV-OC43 gRNA and sgRNA; 36 hpi): 66; background (spectral count) (HCoV-OC43 gRNA and sgRNA; 36 hpi): 12; target (spectral count) (gRNA of HCoV-OC43): 65; background (spectral count) (gRNA of HCoV-OC43): 16; target (spectral count, OC43 Probe I RNP capture) (gRNA of HCoV-OC43; [5]): 64; background (spectral count, no-probe control) (gRNA of HCoV-OC43; [6]): 8 |
| EIF4A1 | 8 | 1 | – | – | – | – | target (unweighted spectral count) (HCoV-OC43 gRNA and sgRNA; [8]): 5 |
| PTBP1: host protein, UniProt P26599 | – | – | 43 | 5 | 61 | 108 | target (unweighted spectral count) (HCoV-OC43 gRNA and sgRNA; [2]): 17; target (unweighted spectral count) (HCoV-OC43 gRNA and sgRNA; [8]): 33; target (spectral count) (HCoV-OC43 gRNA and sgRNA; 36 hpi): 61; background (spectral count) (HCoV-OC43 gRNA and sgRNA; 36 hpi): 12 |
| NPM1 | 17 | 1 | – | – | – | 13 | target (unweighted spectral count, OC43 Probe II capture) (HCoV-OC43 gRNA and sgRNA; [9]): 7; target (unweighted spectral count) (HCoV-OC43 gRNA and sgRNA; [2]): 4 |
| FXR2 | 23 | 1 | 7 | 1 | 5 | – | target (spectral count, OC43 Probe I RNP capture) (gRNA of HCoV-OC43; [5]): 7; background (spectral count, no-probe control) (gRNA of HCoV-OC43; [6]): 1 |
| YBX3: host protein, UniProt P16989 | 73 | 1 | – | – | – | 41 | target (unweighted spectral count) (HCoV-OC43 gRNA and sgRNA; [2]): 7; target (unweighted spectral count) (HCoV-OC43 gRNA and sgRNA; [8]): 10; target (spectral count) (gRNA of HCoV-OC43): 13; background (spectral count) (gRNA of HCoV-OC43): 2 |
| DHX9: host protein, UniProt Q08211 | 11 | 1 | 31 | 4 | – | 15 | target (unweighted spectral count) (HCoV-OC43 gRNA and sgRNA; [8]): 13; target (spectral count) (HCoV-OC43 gRNA and sgRNA; 36 hpi): 27; background (spectral count) (HCoV-OC43 gRNA and sgRNA; 36 hpi): 3; target (spectral count, OC43 Probe I RNP capture) (gRNA of HCoV-OC43; [5]): 24; background (spectral count, no-probe control) (gRNA of HCoV-OC43; [6]): 4 |
| GAPDM | – | – | – | – | – | 7 | – |
| HSPB1 | – | – | – | – | – | – | target (unweighted spectral count in RNP capture) (SARS-CoV-2 gRNA): 5; background (unweighted spectral count in control) (SARS-CoV-2 gRNA): 1 |
| YP_009725304.1 | – | – | – | – | – | – | target (unweighted spectral count in RNP capture) (SARS-CoV-2 gRNA): 5; background (unweighted spectral count in control) (SARS-CoV-2 gRNA): 1 |
| EIF4G1: host protein, UniProt Q04637 | 18 | 1 | – | – | 7 | – | target (unweighted spectral count, OC43 Probe II capture) (HCoV-OC43 gRNA and sgRNA; [9]): 4; target (spectral count) (HCoV-OC43 gRNA and sgRNA; 36 hpi): 7; background (spectral count) (HCoV-OC43 gRNA and sgRNA; 36 hpi): 1 |
| MRPL28: host protein, UniProt Q13084 | – | – | 7 | 1 | – | 12 | target (spectral count) (gRNA of HCoV-OC43): 13; background (spectral count) (gRNA of HCoV-OC43): 1; target (spectral count, OC43 Probe I RNP capture) (gRNA of HCoV-OC43; [5]): 10; background (spectral count, no-probe control) (gRNA of HCoV-OC43; [6]): 1 |
| VIM | – | – | – | – | – | 16 | target (unweighted spectral count of the protein in the RNP capture experiment) [1]: 17; back-ground (unweighted spectral count of the protein in the control experiment) [1]: 4 |
| MYH9 | – | – | 9 | 1 | – | – | target (unweighted spectral count of the protein in the RNP capture experiment) [1]: 9; back-ground (unweighted spectral count of the protein in the control experiment) [1]: 2; target (unweighted spectral count, OC43 Probe II capture) (HCoV-OC43 gRNA and sgRNA; [9]): 6 |
| RPL22L1 | – | – | – | – | – | 8 | target (unweighted spectral count) (HCoV-OC43 gRNA and sgRNA; [2]): 5 |
| LARP4B | – | – | 6 | 1 | – | – | target (unweighted spectral count of the protein in the RNP capture experiment) [1]: 6; back-ground (unweighted spectral count of the protein in the control experiment) [1]: 1; target (unweighted spectral count) (HCoV-OC43 gRNA and sgRNA; [8]): 6 |
| SRSF1 | 8 | 1 | – | – | – | – | background (unweighted spectral count, no-probe control) (HCoV-OC43 gRNA and sgRNA): 1; target (unweighted spectral count, OC43 Probe II capture) (HCoV-OC43 gRNA and sgRNA): 14; target (unweighted spectral count, OC43 Probe II) (HCoV-OC43 gRNA and sgRNA): 20; background (spectral count, no-probe control) (gRNA of HCoV-OC43): 1; target (spectral count, OC43 Probe I RNP capture) (gRNA of HCoV-OC43): 17 |
| G3BP1 | 54 | 1 | – | – | 8 | 55 | target (unweighted spectral count, OC43 Probe II capture) (HCoV-OC43 gRNA and sgRNA; [9]): 5; target (unweighted spectral count) (HCoV-OC43 gRNA and sgRNA; [2]): 5 |
| PPIA | – | – | 12 | 1 | 13 | – | back-ground (unweighted spectral count of the protein in the control experiment) [1]: 10; target (spectral count, OC43 Probe I RNP capture) (gRNA of HCoV-OC43; [5]): 10; background (spectral count, no-probe control) (gRNA of HCoV-OC43; [6]): 1 |
| SQSTM1: host protein, UniProt Q13501 | 19 | 1 | – | – | – | – | target (spectral count) (gRNA of HCoV-OC43): 7; background (spectral count) (gRNA of HCoV-OC43): 1 |
| PCBP1 | – | 2 | – | – | 16 | 12 | target (unweighted spectral count) (HCoV-OC43 gRNA and sgRNA; [2]): 8; target (unweighted spectral count) (HCoV-OC43 gRNA and sgRNA; [8]): 8 |
| EZR | – | – | – | – | – | – | target (unweighted spectral count in RNP capture) (SARS-CoV-2 gRNA): 5; background (unweighted spectral count in control) (SARS-CoV-2 gRNA): 1 |
| KHORBS1 | – | – | – | – | – | 19 | – |
| LARP4 | 10 | 1 | – | – | 4 | – | – |
| FAM98A | – | – | 5 | 1 | 4 | 7 | – |

— patent US20230407373A1 (priority 2020, published 2023)
